Results: ChEMBL document CHEMBL3232788, “1-(2-Hydroxy-2-methyl-3-phenoxypropanoyl)indoline-4-carbonitrile derivatives as potent and tissue selective androgen receptor modulators” (J Med Chem, 2014)
Activity calls are given as the source filed them. The rule behind the calls is not given here.

Columns and labels:
Androgen receptor [1] = target: T1, Androgen receptor (Homo sapiens, UniProt P10275); assay: Binding affinity to human AR NTD (1 to 561 aa) expressed in CV1 cells coexpressing human AR-LBD (644-919 aa) assessed as N/C-termini interaction by androgenic assay; type: cell-based, CV-1
T1 sequence (P10275 whole entry): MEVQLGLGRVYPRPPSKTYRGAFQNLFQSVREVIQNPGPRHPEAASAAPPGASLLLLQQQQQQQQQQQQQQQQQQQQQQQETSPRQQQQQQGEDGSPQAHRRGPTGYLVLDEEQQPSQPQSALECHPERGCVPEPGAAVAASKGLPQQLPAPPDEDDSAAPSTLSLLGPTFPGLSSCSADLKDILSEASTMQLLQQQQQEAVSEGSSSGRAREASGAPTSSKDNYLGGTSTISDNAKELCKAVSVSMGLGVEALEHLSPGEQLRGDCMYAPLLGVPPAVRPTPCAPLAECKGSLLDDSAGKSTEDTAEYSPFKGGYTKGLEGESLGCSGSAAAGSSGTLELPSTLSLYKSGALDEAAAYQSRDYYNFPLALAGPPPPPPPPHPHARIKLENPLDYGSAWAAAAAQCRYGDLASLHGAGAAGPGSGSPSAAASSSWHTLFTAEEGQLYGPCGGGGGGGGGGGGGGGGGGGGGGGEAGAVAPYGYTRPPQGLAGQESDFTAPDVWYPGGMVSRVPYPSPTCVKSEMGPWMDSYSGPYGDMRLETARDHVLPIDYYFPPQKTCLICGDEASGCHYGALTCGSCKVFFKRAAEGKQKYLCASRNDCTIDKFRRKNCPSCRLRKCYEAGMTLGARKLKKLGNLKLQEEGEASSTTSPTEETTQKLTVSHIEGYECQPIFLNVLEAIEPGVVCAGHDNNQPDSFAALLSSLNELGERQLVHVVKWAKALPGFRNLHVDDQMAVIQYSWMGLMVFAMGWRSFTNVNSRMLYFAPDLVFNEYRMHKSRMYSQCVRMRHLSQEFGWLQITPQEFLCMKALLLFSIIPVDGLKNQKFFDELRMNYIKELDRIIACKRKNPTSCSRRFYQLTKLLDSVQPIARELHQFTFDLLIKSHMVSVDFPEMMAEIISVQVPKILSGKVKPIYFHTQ

Androgen receptor [2] = target: T1, Androgen receptor; assay: Displacement of [3H]mibolerone from full length human AR expressed in COS cells after 3.5 hrs by liquid scintillation counting; type: cell-based
Androgen receptor [3] = target: T1, Androgen receptor; assay: Agonist activity at human AR expressed in CV1 cells after 17 hrs by luciferase reporter gene assay; type: cell-based, CV-1
Rattus norvegicus [4] = assay: Increase in seminal vesicle weight in orchidectomized Sprague-Dawley rat at 1 mg/kg, sc qd for 4 days relative to vehicle-treated control; type: ADME, organism-based; design: dose 1 mg/kg, route subcutaneous; conditions: in vivo, 96 h
Rattus norvegicus [5] = assay: Increase in prostate tissue weight in orchidectomized Sprague-Dawley rat at 1 mg/kg, sc qd for 4 days relative to vehicle-treated control; type: ADME, organism-based, Prostate gland; design: dose 1 mg/kg, route subcutaneous; conditions: in vivo, 96 h
Rattus norvegicus [6] = assay: Increase in levator ani muscle weight in orchidectomized Sprague-Dawley rat at 1 mg/kg, sc qd for 4 days relative to vehicle-treated control; type: functional, organism-based; design: dose 1 mg/kg

Row | SMILES | EC50 (Androgen receptor [1]) [nM] | IC50 (Androgen receptor [2]) [nM] | EC50 (Androgen receptor [3]) [nM] | Activity (Rattus norvegicus [4]) | Activity (Rattus norvegicus [5]) | Activity (Rattus norvegicus [6])
1 | C[C@](O)(COc1cccc(F)c1)C(=O)N1CCc2c(C#N)cccc21 | 1530 | 34.2 | 37.4 |  |  | 
2 | C[C@](O)(COc1ccccc1C(F)(F)F)C(=O)N1CCc2c(C#N)cccc21 | 372 | 60.9 | 1.7 |  |  | 
3 | C[C@](O)(COc1ccc(Br)cc1F)C(=O)N1CCc2c(C#N)cccc21 | 0.93 | 36.8 | 0.11 |  |  | 
4 | C[C@](O)(COc1ccc(F)cc1C#N)C(=O)N1CCc2c(C#N)cccc21 | 0.74 | 9.1 | 0.074 |  |  | 
5 | COc1ccc(OC[C@](C)(O)C(=O)N2CCc3c(C#N)cccc32)c(Cl)c1 | 54.1 | 3.5 | 0.61 |  |  | 
6 | C[C@](O)(COc1ccc(C(F)(F)F)cc1)C(=O)N1CCc2c(C#N)cccc21 | > 10000 | 33.1 | 1.8 |  |  | 
7 | COc1ccc(OC[C@](C)(O)C(=O)N2CCc3c(C#N)cccc32)c(F)c1 | > 10000 | 427 | 2.9 |  |  | 
8 | COc1cc(Cl)ccc1OC[C@](C)(O)C(=O)N1CCc2c(C#N)cccc21 | > 10000 | 366 | 17.1 |  |  | 
9 | C[C@](O)(COc1cccc(Cl)c1)C(=O)N1CCc2c(C#N)cccc21 | > 10000 | 107 | 275 |  |  | 
10 | C[C@](O)(COc1ccc(Br)cc1)C(=O)N1CCc2c(C#N)cccc21 | 7.6 | 2.4 | 0.34 |  |  | 
11 | C[C@](O)(COc1ccc(C#N)cc1Br)C(=O)N1CCc2c(C#N)cccc21 | 0.41 | 4.8 | 0.06 |  |  | 
12 | C[C@](O)(COc1ccc(Cl)cc1Cl)C(=O)N1CCc2c(C#N)cccc21 | 1.4 | 9.1 | 0.25 |  |  | 
13 | C[C@](O)(COc1ccc(Cl)cc1F)C(=O)N1CCc2c(C#N)cccc21 | 0.85 | 5 | 0.28 |  |  | 
14 | C[C@](O)(COc1ccccc1)C(=O)N1CCc2c(C#N)cccc21 | > 10000 | 99.5 | 689 |  |  | 
15 | C[C@](O)(COc1ccc(C#N)cc1)C(=O)N1CCc2c(C#N)cccc21 | 71.8 | 16.4 | 1.8 |  |  | 
16 | COc1cc(C#N)ccc1OC[C@](C)(O)C(=O)N1CCc2c(C#N)cccc21 | 2120 | 16.1 | 7.6 |  |  | 
17 | COC(=O)c1ccc(OC[C@](C)(O)C(=O)N2CCc3c(C#N)cccc32)cc1 | > 10000 | 133 | 6.8 |  |  | 
18 | C[C@](O)(COc1ccc(Cl)cc1)C(=O)N1CCc2c(C#N)cccc21 | 172 | 36.5 | 3.4 |  |  | 
19 | C[C@](O)(COc1ccccc1F)C(=O)N1CCc2c(C#N)cccc21 | > 10000 | 10.1 | 14.8 |  |  | 
20 | C[C@](O)(COc1ccccc1Cl)C(=O)N1CCc2c(C#N)cccc21 | 4820 | 56.3 | 6.1 |  |  | 
21 | C[C@](O)(COc1ccc(C#N)cc1F)C(=O)N1CCc2c(C#N)cccc21 | 0.14 | 3.2 | 0.039 |  |  | 
22 | CCC(=O)O[C@H]1CC[C@H]2[C@@H]3CCC4=CC(=O)CC[C@]4(C)[C@H]3CC[C@]12C [TESTOSTERONE PROPIONATE] |  |  |  | Toxic | Toxic | Active
23 | C[C@](O)(COc1ccc(-c2cocn2)cc1)C(=O)N1CCc2c(C#N)cccc21 | > 10000 | 179 | 7.2 |  |  | 
24 | Cc1cc(F)ccc1OC[C@](C)(O)C(=O)N1CCc2c(C#N)cccc21 | 72.2 | 10.7 | 1.1 |  |  | 
25 | COc1ccc(OC[C@](C)(O)C(=O)N2CCc3c(C#N)cccc32)cc1 | 624 | 146 | 8.6 |  |  | 
26 | C[C@](O)(COc1ccc(F)cc1Br)C(=O)N1CCc2c(C#N)cccc21 | 39.5 | 11.4 | 0.4 |  |  | 
27 | C[C@](O)(COc1ccccc1C#N)C(=O)N1CCc2c(C#N)cccc21 | 0.77 | 14.3 | 0.15 |  |  | 
